Experimental data taken from ChEMBL document CHEMBL1147836, “Benzo[b]thiophene-2-carboxamides and benzo[b]furan-2-carboxamides are potent antagonists of the human H3-receptor” (Bioorg Med Chem Lett, 2006).

biological target: Histamine H3 receptor (Homo sapiens, UniProt Q9Y5N1); test: Antagonist activity at human histamine H3 receptor by [35S]GTP-gamma-S assay; type: functional
Sequence (Q9Y5N1 whole entry): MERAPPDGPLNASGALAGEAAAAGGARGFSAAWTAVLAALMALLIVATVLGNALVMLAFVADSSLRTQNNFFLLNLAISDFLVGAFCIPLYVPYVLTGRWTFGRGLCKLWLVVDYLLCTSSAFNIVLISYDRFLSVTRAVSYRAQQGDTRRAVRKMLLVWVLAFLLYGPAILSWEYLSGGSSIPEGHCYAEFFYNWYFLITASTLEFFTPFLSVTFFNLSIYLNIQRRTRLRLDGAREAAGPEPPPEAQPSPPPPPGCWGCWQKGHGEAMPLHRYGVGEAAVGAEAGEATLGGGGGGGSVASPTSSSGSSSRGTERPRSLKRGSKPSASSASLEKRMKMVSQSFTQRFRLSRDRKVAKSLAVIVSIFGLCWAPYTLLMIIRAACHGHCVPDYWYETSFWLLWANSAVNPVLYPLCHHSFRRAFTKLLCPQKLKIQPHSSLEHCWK

Q: `O=C(c1cc2ccc(C(F)(F)F)cc2o1)N1CCC[C@H]1CN1CCCCC1` was tested. Which Ki did it give?
A: 22 nM

Q: How did the Ki turn out when `CCOc1cccc2cc(C(=O)N3CCC[C@H]3CN3CCCC3)oc12` was run?
A: 7 nM

Q: For `N#Cc1ccc2oc(C(=O)N3CCC[C@H]3CN3CCCC3)cc2c1`, which Ki is on record?
A: 5 nM

Q: For `O=C(c1cnc2ccccc2c1)N1CCC[C@H]1CN1CCCC1`, which Ki is on record?
A: > 150 nM

Q: How did the Ki turn out when `O=C(c1cc2ccc(C(F)(F)F)cc2o1)N1CCC[C@H]1CN1CCCC1` was run?
A: 15 nM

Q: With `O=C(c1cc2cc(C(F)(F)F)ccc2o1)N1CCC[C@H]1CN1CCCCC1` as the molecule, how does the Ki read?
A: 7 nM

Q: With `O=C(c1cc2cc(C(F)(F)F)ccc2o1)N1CCC[C@H]1CN1CCCC1` as the molecule, how does the Ki read?
A: 4 nM

Q: With `O=C(c1cc2cc(Cl)ccc2o1)N1CCC[C@H]1CN1CCCC1` as the molecule, how does the Ki read?
A: 5 nM

Q: `O=C(c1sc2ccccc2c1Cl)N1CCC[C@H]1CN1CCCC1` was tested. Which Ki did it give?
A: 12 nM

Q: How did the Ki turn out when `CCN(CC)C[C@@H]1CCCN1C(=O)c1cc2cc(C(F)(F)F)ccc2o1` was run?
A: 14 nM

Q: How did the Ki turn out when `CCN(CC)C[C@@H]1CCCN1C(=O)c1cc2ccc(C(F)(F)F)cc2o1` was run?
A: 46 nM

Q: For `O=C(c1cc2cc(OC(F)(F)F)ccc2o1)N1CCC[C@H]1CN1CCCC1`, which Ki is on record?
A: 11 nM

Q: `O=C(c1cc2ccccc2s1)N1CCC[C@H]1CN1CCCC1` was tested. Which Ki did it give?
A: 4 nM

Q: `O=C(c1cnc2ccccc2c1)N1CCC[C@H]1CN1CCCCC1` was tested. Which Ki did it give?
A: > 150 nM
